Assay results published in patent publication US5387602A, “1.5-diphenyl-3-(N-hydroxycarbamoyloxyalkyl)pyrazoles” (Ortho Pharmaceutical Corporation, priority 1993, dated 1995).
pIC50: −log10 of the molar value.

Legend:
[1] = biological target: T1, 5-LO in intact RBL-1 cells (Rattus norvegicus, UniProt P12527); experiment: Procedure III: inhibition of 5-LO in intact RBL-1 cells; type: cell-based
T1 construct: 5-LO and CO in intact RBL-1 cells; endogenous in cells; host or cells: RBL-1 (rat basophilic leukemia cells), intact
T1 sequence (P12527 1-673): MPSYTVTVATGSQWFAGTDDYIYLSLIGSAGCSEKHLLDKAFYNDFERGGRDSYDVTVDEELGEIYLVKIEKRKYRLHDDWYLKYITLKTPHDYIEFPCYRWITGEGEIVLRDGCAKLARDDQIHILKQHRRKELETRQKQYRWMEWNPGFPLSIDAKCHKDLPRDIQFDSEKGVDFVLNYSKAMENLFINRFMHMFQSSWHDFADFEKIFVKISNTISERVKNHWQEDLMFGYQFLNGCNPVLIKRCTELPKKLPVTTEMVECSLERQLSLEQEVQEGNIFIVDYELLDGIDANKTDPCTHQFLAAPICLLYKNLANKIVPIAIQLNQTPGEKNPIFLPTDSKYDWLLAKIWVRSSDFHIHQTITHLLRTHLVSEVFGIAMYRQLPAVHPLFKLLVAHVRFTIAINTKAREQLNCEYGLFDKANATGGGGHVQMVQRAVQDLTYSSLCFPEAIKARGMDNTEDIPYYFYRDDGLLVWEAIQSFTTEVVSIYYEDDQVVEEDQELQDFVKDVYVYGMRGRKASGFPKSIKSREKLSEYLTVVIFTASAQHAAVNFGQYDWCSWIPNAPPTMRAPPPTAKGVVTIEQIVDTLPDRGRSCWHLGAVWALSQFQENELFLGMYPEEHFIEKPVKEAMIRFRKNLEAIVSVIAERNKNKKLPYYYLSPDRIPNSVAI
Description: The ability to inhibit 5-LO and CO in intact RBL-1 cells was also evaluated. RBL-1 cells were maintained in culture in minimal essential medium (Bio*Whittaker, Walkersville, Md.), containing 12.5% fetal calf serum, 10 mg/mL streptomycin, 10 I.U./mL penicillin G, […] gentamycin and 2 mM L-glutamine (Bio*Whittaker, Walkersville, Md.). Cells were collected by centrifugation, washed once in HBSS, and resuspended at a concentration of 1×10^5 cells/mL. Cells were incubated in the presence of vehicle or drug then centrifuged at 800×g for 10 minutes at 4° C. The supernatant was removed by aspiration and the cells were resuspended in 0.5 mL of HBSS. The reaction was started by the addition of 20 μg/mL of calcium ionophore A-23187 (mixed calcium and magnesium salts, Calbiochem, La Jolla, Calif.) and allowed to proceed for 15 minutes, then stopped by plunging the tubes into a slush ice bath. The conversion of AA to 5-LO products was initiated by the addition of 10 μL (50 uCi) of 1-^14 C-AA. Products were isolated by acidification and extraction, followed by thin layer chromatography analysis as described above. Radioactive areas corresponding to authentic 5-LO and CO products were quantitated by the Bioscan 2000 Imaging System.
In the following tables, the superscripts indicate the number of experiments and, unless otherwise stated, the dose at which % inhibition is reported is 3 MPK.

[2] = biological target: T2, Sheep Seminal Vesicle Cyclooxygenase (Ovis aries, UniProt P05979); experiment: Procedure I: sheep seminal vesicle (SSV) cyclooxygenase inhibition; type: biochemical; settings: for pIC50: SSV CO; for % INHIB. CO (Procedure I): dose 3 MPK unless otherwise stated (so in the source)
T2 construct: purchased Biomol (Plymouth Meeting, Pa.); host or cells: sheep seminal vesicle
T2 sequence (P05979 25-600): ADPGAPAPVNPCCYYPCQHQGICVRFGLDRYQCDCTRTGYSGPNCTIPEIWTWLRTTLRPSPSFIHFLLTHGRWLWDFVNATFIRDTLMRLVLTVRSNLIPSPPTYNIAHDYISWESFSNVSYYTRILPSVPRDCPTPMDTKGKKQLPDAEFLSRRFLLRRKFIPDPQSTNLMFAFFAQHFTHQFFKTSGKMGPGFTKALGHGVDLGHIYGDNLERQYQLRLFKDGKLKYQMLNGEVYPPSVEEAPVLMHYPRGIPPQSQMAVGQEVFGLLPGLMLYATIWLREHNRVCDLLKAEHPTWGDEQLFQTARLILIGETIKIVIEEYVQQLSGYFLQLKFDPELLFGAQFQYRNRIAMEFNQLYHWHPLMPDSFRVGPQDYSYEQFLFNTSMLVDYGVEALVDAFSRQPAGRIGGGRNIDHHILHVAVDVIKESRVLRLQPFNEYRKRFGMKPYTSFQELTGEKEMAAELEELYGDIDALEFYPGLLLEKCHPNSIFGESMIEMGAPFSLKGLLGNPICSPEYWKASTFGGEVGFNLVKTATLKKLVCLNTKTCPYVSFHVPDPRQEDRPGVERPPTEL
Description: Sheep Seminal Vesicle Cyclooxygenase Sheep seminal vesicle (SSV) cyclooxygenase (95% pure, prostaglandin endoperoxide synthase, EC 1.14.99.1 specific activity 24 units/mg protein) obtained as a lyophilized powder from Biomol (Plymouth Meeting, Pa.) was reconstituted at a concentration of 59 mg/mL in Hanks' Balanced Salt Solution (HBSS). The enzyme was divided into 200 μL aliquots, snap frozen with liquid N2, and stored at -70° C. until immediately prior to use. Measurements of CO activity were carried out in polypropylene tubes containing 495 μL of HBSS to which was added 5 μL Of inhibitor or dimethylsulfoxide (DMSO; vehicle control) and 6 μL of SSV CO solution. The tubes were mixed on a vortex shaker, preincubated for 5 min at 37° C. prior to the initiation of the reaction. The reaction was started by the addition of [^14 C]-arachidonic acid (1-^14 C-AA, Amersham, Arlington Heights, Ill.) in 10 μL of methanol. Tubes were again vortexed and incubated in a water bath for 20 minutes after which the tubes were removed and the reaction stopped by acidification with the addition of 1 mL 2M formic acid. Lipophilic products were extracted with 3 mL chloroform and concentrated to dryness under N2. Each pellet was reconstituted with 40 μL of chloroform and spotted on a Whatman Silicon thin-layer chromatography plate and developed in a chromatography tank containing A-9 solvent (11:5:2:1 V:V:V:V, ethyl acetate:trimethyl-pentane:acetic acid:double distilled-H2 O). Radioactive cyclooxygenase products (prostaglandin D2, prostaglandin E2, etc.) were measured using a Bioscan System 200 Imaging Scanner. Inhibition of enzyme activity was calculated by comparing the areas under the curve produced in the presence or absence of test compound. In the following tables, the superscripts indicate the number of experiments and, unless otherwise stated, the dose at which % inhibition is reported is 3 MPK.

Structure (SMILES)	pIC50 [1]	pIC50 [2]	% INHIB. CO (Procedure I) [2] [%]
COc1ccc(-n2nc(COC(=O)NO)cc2-c2ccc(Cl)cc2)cc1 [1-A]	4.62	5.65	43
COc1ccc(-n2nc(COC(=O)N(C)O)cc2-c2ccc(Cl)cc2)cc1 [1-B]	5.21	6.14	100
COc1ccc(-n2nc(COC(=O)N(O)C(C)C)cc2-c2ccc(Cl)cc2)cc1 [1-C]	4.97	6.28	92
COc1ccc(-n2nc(COC(=O)NO)c(Br)c2-c2ccc(Cl)cc2)cc1 [1-D]	4.59	5.51	43
COc1ccc(-n2nc(COC(=O)N(C)O)c(Br)c2-c2ccc(Cl)cc2)cc1 [1-E]	5.92	6.13	100
COc1ccc(-n2nc(COC(=O)N(O)C(C)C)c(Br)c2-c2ccc(Cl)cc2)cc1 [1-F]	5.44		44
COc1ccc(-n2nc(COC(=O)NO)c(Cl)c2-c2ccc(Cl)cc2)cc1 [1-G]	4.80		28
COc1ccc(-n2nc(COC(=O)N(C)O)c(Cl)c2-c2ccc(Cl)cc2)cc1 [1-H]	5.70	5.94	100
COc1ccc(-n2nc(COC(=O)N(O)C(C)C)c(Cl)c2-c2ccc(Cl)cc2)cc1 [1-I]	5.63	5.28	18
COc1ccc(-n2nc(COC(=O)NO)cc2-c2ccc(C)cc2)cc1 [1-J]	4.59	6.14	73
COc1ccc(-n2nc(COC(=O)N(C)O)cc2-c2ccc(C)cc2)cc1 [1-K]	5.44	6.29	100
COc1ccc(-n2nc(COC(=O)N(O)C(C)C)cc2-c2ccc(C)cc2)cc1 [1-L]	5.42	6.38	100
COc1ccc(-n2nc(COC(=O)NO)c(Br)c2-c2ccc(C)cc2)cc1 [1-M]	4.67	5.64	75
COc1ccc(-n2nc(COC(=O)N(C)O)c(Br)c2-c2ccc(C)cc2)cc1 [1-N]	5.46	6.05	100
COc1ccc(-n2nc(COC(=O)N(O)C(C)C)c(Br)c2-c2ccc(C)cc2)cc1 [1-O]	5.29	5.58	59
COc1ccc(-n2nc(COC(=O)NO)c(Cl)c2-c2ccc(C)cc2)cc1 [1-P]	4.76	5.30	52
COc1ccc(-n2nc(COC(=O)N(C)O)c(Cl)c2-c2ccc(C)cc2)cc1 [1-Q]	5.74	5.67	93
COc1ccc(-n2nc(COC(=O)N(O)C(C)C)c(Cl)c2-c2ccc(C)cc2)cc1 [1-R]	5.57		11

Structure (SMILES)	pIC50 [1]	pIC50 [2]	% INHIB. CO (Procedure I) [2] [%]
COc1ccc(-n2nc(CCOC(=O)N(C)O)cc2-c2ccc(Cl)cc2)cc1 [2-A]	5.87	5.70	100
COc1ccc(-n2nc(CCOC(=O)N(O)C(C)C)cc2-c2ccc(Cl)cc2)cc1 [2-B]	5.70	6.02	100
COc1ccc(-n2nc(CCOC(=O)N(C)O)c(Cl)c2-c2ccc(Cl)cc2)cc1 [2-C]	5.38	5.73	100
COc1ccc(-n2nc(CCOC(=O)N(O)C(C)C)c(Cl)c2-c2ccc(Cl)cc2)cc1 [2-D]	5.64	6.54	63
COc1ccc(-n2nc(CCOC(=O)N(C)O)c(Br)c2-c2ccc(Cl)cc2)cc1 [2-E]	5.96	5.71	37
COc1ccc(-n2nc(CCOC(=O)N(O)C(C)C)c(Br)c2-c2ccc(Cl)cc2)cc1 [2-F]	5.80	6.32	58
COc1ccc(-n2nc(CCOC(=O)N(C)O)cc2-c2ccc(C)cc2)cc1 [2-G]	6.04	6.39	100
COc1ccc(-n2nc(CCOC(=O)N(O)C(C)C)cc2-c2ccc(C)cc2)cc1 [2-H]	5.83	6.66	94
COc1ccc(-n2nc(CCOC(=O)N(C)O)c(Cl)c2-c2ccc(C)cc2)cc1 [2-I]	5.97	5.46	80
COc1ccc(-n2nc(CCOC(=O)N(O)C(C)C)c(Cl)c2-c2ccc(C)cc2)cc1 [2-J]	5.51	5.35	88
COc1ccc(-n2nc(CCOC(=O)NO)c(Br)c2-c2ccc(C)cc2)cc1 [2-K]	4.73		21
COc1ccc(-n2nc(CCOC(=O)N(C)O)c(Br)c2-c2ccc(C)cc2)cc1 [2-L]	5.92		22
COc1ccc(-n2nc(CCCOC(=O)NO)cc2-c2ccc(Cl)cc2)cc1 [3-A]	4.52	5.40	40
COc1ccc(-n2nc(CCCOC(=O)N(C)O)cc2-c2ccc(Cl)cc2)cc1 [3-B]	5.49		74
COc1ccc(-n2nc(CCCOC(=O)N(O)C(C)C)cc2-c2ccc(Cl)cc2)cc1 [3-C]	5.71	5.85	53
COc1ccc(-n2nc(CCCOC(=O)N(C)O)c(Cl)c2-c2ccc(Cl)cc2)cc1 [3-D]	6.09	5.59	68
COc1ccc(-n2nc(CCCOC(=O)N(O)C(C)C)c(Cl)c2-c2ccc(Cl)cc2)cc1 [3-E]	5.55	5.24	26
COc1ccc(-n2nc(CCCOC(=O)N(C)O)c(Br)c2-c2ccc(Cl)cc2)cc1 [3-F]	5.63	5.64	78
